Where two headings read alike, the source gives them in different places. Bridge positions count the residues as written; N and C are the ends. Peptide text beside a SMILES is read from it.
Legend:
Format in all cases: cell-based
[1] = molecular target: T1, Kv1.1/1.3 S5-S6 chimeric channel (Homo sapiens, UniProt Q09470, A352P/E350D/E351D/E353T/H355G/S369T/Y379H); assay: Whole-cell patch clamp, chimeric channel; conditions: +30 mV, mean ± SD
T1 construct: expressed in transfected cells; host or cells: CHO-K1
T1 sequence (Q09470 whole entry E350D/E351D/A352P/E353T/H355G/S369T/Y379H): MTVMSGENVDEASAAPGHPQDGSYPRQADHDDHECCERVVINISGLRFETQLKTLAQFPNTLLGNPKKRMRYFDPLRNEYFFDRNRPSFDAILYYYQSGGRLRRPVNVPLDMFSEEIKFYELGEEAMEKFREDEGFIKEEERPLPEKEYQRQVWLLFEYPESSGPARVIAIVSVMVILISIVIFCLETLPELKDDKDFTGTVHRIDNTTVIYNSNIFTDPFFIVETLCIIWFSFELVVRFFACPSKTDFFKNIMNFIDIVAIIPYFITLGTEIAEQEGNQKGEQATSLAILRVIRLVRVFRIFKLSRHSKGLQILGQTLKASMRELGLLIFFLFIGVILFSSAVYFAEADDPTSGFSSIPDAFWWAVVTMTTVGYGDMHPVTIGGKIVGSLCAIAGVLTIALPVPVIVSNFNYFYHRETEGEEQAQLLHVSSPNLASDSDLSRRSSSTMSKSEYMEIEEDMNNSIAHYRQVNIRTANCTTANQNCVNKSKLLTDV
Text: (§1) To investigate the structural determinants underlying the differential regulatory effects of MrVIII on Kv1 channels, we employed a chimeric channel strategy. Using Kv1.3 as the template, the S1-S2, S3-S4, and S5-S6 transmembrane helices and their respective linkers from Kv1.1 were inserted to generate chimeras, generating the Kv1.3/1.1 S1-S2, Kv1.3/1.1 S3-S4, and Kv1.3/1.1 S5-S6 chimeric channels. […] These findings indicate that the S3-S4 is the key determinant for the differential inhibition of Kv1.1 and Kv1.3 by MrVIII. To further validate this conclusion, we constructed a reverse chimeric channel using Kv1.1 as the template, inserting the corresponding regions from Kv1.3 into Kv1.1. […] This finding more directly illustrates the exchange of the channel's voltage-dependence phenotype in toxin inhibition by swapping this S3-S4 between Kv1.1 and Kv1.3. […] In addition to confirming the differential role of S3-S4 between Kv1.1 and Kv1.3, we also substituted the S3-S4 of Kv1.4 and Kv1.7 into Kv1.3 to analyze MrVIII's inhibition profile. […] The IC50 for Kv1.3/1.7 S3-S4 could not be fitted, and inhi%(495 ms) was only 23.1 ± 10.0% (Fig. S2, E and F). […]
(§2) CHO-K1 cells were selected for expressing Kv channels due to their lack of endogenous Kv channels, while HEK293 or ND7/23 cells were used for Nav and Cav channel expression. […] After 4 to 6 h transfection, cells were seeded onto poly-lysine–coated coverslips, and 24 to 36 h later, transfected cells were ready for patch-clamp analysis. […]
(§3) For Kv current recordings, the bath solution contained (in mM) the following: 140 NaCl, 5 KCl, 1 MgCl2, 2 CaCl2, 10 glucose, and 10 Hepes (pH 7.3, adjusted with NaOH), and the pipette solution contained (in mM) the following: 140 KCl, 2.5 MgCl2, 11 EGTA, and 10 Hepes (pH 7.3, adjusted with KOH). […] Whole cell conductance (G) at each depolarizing voltage (V) was determined using the equation: G = I/(V−Vrev), where I is the current amplitude, and Vrev is the reversal potential. […]

[2] = molecular target: T2, Kv1.3/1.1 S5-S6 chimeric channel (Homo sapiens, UniProt P22001, D422E/D423E/G427H/H451Y/P424A/T425E/T441S); assay: Whole-cell patch clamp, chimeric channel; conditions: +30 mV, 500 ms, holding −80 mV, mean ± SD, n = 4-5, read-out: IC50, Kv1.3/1.1 S5-S6 current
T2 construct: expressed in transfected cells; host or cells: CHO-K1
T2 sequence (P22001 whole entry D422E/D423E/P424A/T425E/G427H/T441S/H451Y): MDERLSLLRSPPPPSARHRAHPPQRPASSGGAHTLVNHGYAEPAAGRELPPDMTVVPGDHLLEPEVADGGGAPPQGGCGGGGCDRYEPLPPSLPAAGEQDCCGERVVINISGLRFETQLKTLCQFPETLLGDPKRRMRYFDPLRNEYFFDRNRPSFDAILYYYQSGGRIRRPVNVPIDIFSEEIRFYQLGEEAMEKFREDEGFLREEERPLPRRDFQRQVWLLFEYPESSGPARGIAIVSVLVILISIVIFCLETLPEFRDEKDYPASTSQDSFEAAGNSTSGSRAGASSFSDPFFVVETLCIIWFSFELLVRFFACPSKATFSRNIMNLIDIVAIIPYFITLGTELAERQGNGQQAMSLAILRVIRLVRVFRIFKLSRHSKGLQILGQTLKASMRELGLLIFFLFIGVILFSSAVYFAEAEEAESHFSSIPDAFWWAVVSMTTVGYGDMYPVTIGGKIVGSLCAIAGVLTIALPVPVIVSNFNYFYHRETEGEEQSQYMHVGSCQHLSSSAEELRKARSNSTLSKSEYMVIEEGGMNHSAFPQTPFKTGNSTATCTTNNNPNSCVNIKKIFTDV
Text: as §1, §2, §3

[3] = molecular target: T3, Kv1.3/I472C mutant (Kv1.3∗) (Homo sapiens, UniProt P22001, I472C); assay: Gating-current recording, Kv1.3* in HEK293T cells; conditions: mean ± SD; for IC50: held at −100 mV, 50 ms depolarization to +30 mV, HEK293T
T3 construct: expressed in transfected cells; host or cells: HEK293T
T3 sequence (P22001 whole entry I472C): as the sequence (P22001 whole entry D422E/D423E/P424A/T425E/G427H/T441S/H451Y) above, with E422D, E423D, A424P, E425T, H427G, S441T, Y451H, I472C counted along it
Description: The cDNA of hKv1.1, hKv1.2, hKv1.3, rKv1.4, hKv1.5, mKv1.6, and hKv1.7 were subcloned into mammalian expression vectors pcDNA3.1 or pCMV-blank vectors, as well as other plasmids described previously ([35]). Channel mutants were generated by site-directed mutations. Briefly, the parental channel plasmid was amplified using a pair of oppositely directed primers harboring the designed mutation site, with KOD Fx (TOYOBO Co, Ltd). The resulting PCR mix was treated with FastDigest DpnI (Thermo Fisher Scientific) to remove the methylated template. Ten microliters of the digested product was then used to transform 100 μl E. coli DH5α competent cells. Transformants were randomly picked and sequenced to confirm the presence of the intended mutation.
CHO-K1 cells were selected for expressing Kv channels due to their lack of endogenous Kv channels, while HEK293 or ND7/23 cells were used for Nav and Cav channel expression. CHO-K1 cells were cultured in a Dulbecco's modified Eagle's medium/Ham's F-12 nutrient mixture (DMEM-F12) medium, and HEK293T and ND7/23 cells in DMEM medium, all supplemented with 10% fetal bovine serum and 1% penicillin-streptomycin (all from Gibco, Thermo Fisher Scientific, Inc) under standard conditions (37 °C, 5% CO2, and saturated humidity). These cell lines were purchased from Stem Cell Bank, Chinese Academy of Sciences. Channel plasmids were cotransfected with pEGFP-N1 (encoding GFP) into the respective cells using lipofectamine 2000, following the manufacturer's instructions (Invitrogen, Thermo Fisher Scientific, Inc.). […] After 4 to 6 h transfection, cells were seeded onto poly-lysine–coated coverslips, and 24 to 36 h later, transfected cells were ready for patch-clamp analysis. […]
Gating currents were recorded by transfecting HEK293T cells with a saturating dose of plasmid to ensure maximal channel expression. […] Gating charge movement (Q) was determined by integrating the area under the IgON and IgOFF traces, representing voltage sensor movement in response to depolarizing pulses. […]

**Q.** `CC[C@H](C)[C@@H]1NC(=O)[C@H](Cc2ccc(O)cc2)NC(=O)[C@H](CCC(N)=O)NC(=O)[C@@H]2CCCN2C(=O)[C@@H]2CSSC[C@H](NC(=O)[C@H](C)NC(=O)[C@H](CO)NC(=O)[C@H](CCC(=O)O)NC(=O)[C@H](CCC(=O)O)NC(=O)[C@@H](N)[C@@H](C)O)C(=O)NCC(=O)NCC(=O)N[C@@H](Cc3ccccc3)C(=O)N[C@@H](CC(N)=O)C(=O)N[C@@H](C)C(=O)N[C@@H](CCCNC(=N)N)C(=O)N[C@H]3CSSC[C@H](NC1=O)C(=O)N[C@@H](CCCCN)C(=O)NCC(=O)N[C@@H](Cc1c[nH]c4ccccc14)C(=O)N[C@@H](CCCNC(=N)N)C(=O)N[C@@H]([C@@H](C)O)C(=O)N[C@@H](CCCCN)C(=O)N[C@@H](CCCNC(=N)N)C(=O)N[C@H](C(=O)N[C@@H](CC(C)C)C(=O)N[C@@H](CC(N)=O)C(=O)N1CCC[C@H]1C(=O)O)CSSC[C@H](NC(=O)[C@H](CCCCN)NC(=O)[C@H](Cc1c[nH]cn1)NC(=O)[C@H](CC(C)C)NC(=O)[C@@H]1CCCN1C3=O)C(=O)N2` [MrVIII] (H-TEESACGGFNARCPLHKCCPQYICKGWRTKRCLNP-OH; disulfide 6-19, 13-24, 18-32; N-terminus and C-terminus assumed) was tested. Which IC50 ([1]; current at 50 ms, n = 4-5) did it give?
**A.** The IC50 was 48.9 ± 26.6 nM.

**Q.** What about the “inhi%(495 ms), Kv1.1/1.3 S5-S6 current” value ([1]; current at 495 ms) of the same molecule?
**A.** Its value is 50.1 ± 19.9%.

**Q.** What about the IC50 [2] of the same molecule?
**A.** Its IC50 is 3 ± 0.9 nM.

**Q.** What about the “Va of Q-V relationship of Kv1.3∗ after toxin” value ([3]; 5 nM MrVIII, before toxin −30.1 ± 7.1 mV, n = 5) of the same molecule?
**A.** Its value is −27.4 ± 10.3 mV.

**Q.** And the IC50 ([3]; n = 8, read-out: IC50, inhibition of IgOFF gating current of Kv1.3∗)?
**A.** The IC50 was 7 ± 4.2 nM.

**Q.** And the IC50 ([3]; n = 8, read-out: IC50, inhibition of IgON gating current of Kv1.3∗)?
**A.** The IC50 was 5 ± 3.4 nM.

Reference: publication PMC11984586, “A novel spider toxin as a selective antagonist of the Kv1 subfamily of voltage-gated potassium channels through gating modulation” (The Journal of Biological Chemistry, 2025)
